From PMC3069055, “Structural Asymmetry of Phosphodiesterase-9, Potential Protonation of a Glutamic Acid, and Role of the Invariant Glutamine” (PLoS ONE, 2011)
Where “and” joins values, the source holds several entries; their conditions need not be identical. Equal entries are not always repeated. Where two headings read alike, the source gives them in different places. Blank lines part the entries; values can stand above or below the molecule they belong to.

Assays:
PDE9A2 E406A mutant [1] = biological target: T1, PDE9A2 E406A mutant (Homo sapiens, UniProt O76083, E466A); assay: PDE9A2 enzymatic assay, IC50 of inhibitors (3H-cGMP substrate); format: biochemical
T1 construct: The coding region for residues 181-506 of PDE9A2 was amplified by PCR; inferred from vector pET15b and Ni-NTA purification) (N); made in house; host or cells: E. coli BL21 (Codonplus)
T1 sequence (O76083 241-566 E466A): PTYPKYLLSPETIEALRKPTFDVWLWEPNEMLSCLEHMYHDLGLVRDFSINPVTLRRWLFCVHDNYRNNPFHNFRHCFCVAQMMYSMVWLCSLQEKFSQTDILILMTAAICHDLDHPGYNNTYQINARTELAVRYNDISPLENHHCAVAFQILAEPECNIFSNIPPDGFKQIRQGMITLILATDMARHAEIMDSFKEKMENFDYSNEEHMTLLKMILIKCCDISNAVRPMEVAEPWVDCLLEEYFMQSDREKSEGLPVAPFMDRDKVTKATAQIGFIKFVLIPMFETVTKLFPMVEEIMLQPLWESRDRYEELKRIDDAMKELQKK
Protocol: (§1) Each measurement was repeated two times. The reaction was carried out at room temperature for 15 min and then terminated by the addition of 0.2 M ZnSO4 and 0.2 M Ba(OH)2. […] Vmax and KM values were calculated by nonlinear regression on the curve of velocity versus substrate concentration and also by Eadie-Hofstee plot. […] The IC50 values were calculated by nonlinear regression.

[2] = biological target: T2, wild type PDE9A2 catalytic domain (Homo sapiens, UniProt O76083); assay: as above; format: biochemical
T2 construct: The coding region for residues 181-506 of PDE9A2 was amplified by PCR; inferred from vector pET15b and Ni-NTA purification) (N); made in house; host or cells: E. coli BL21 (Codonplus)
T2 sequence (O76083 241-566): as the sequence (O76083 241-566 E466A) above, with A226E counted along it
Protocol: as §1

[3] = biological target: T3, PDE9A2 Q453E mutant (PDE9Q453E) (Homo sapiens, UniProt O76083, Q513E); assay: as above; format: biochemical
T3 construct: The catalytic domain of the PDE9Q453E mutant (10–15 mg/mL, amino acids 181–506); made in house; host or cells: E. coli BL21 (Codonplus)
Protocol: as §1

PDE9A2 E406A mutant [4] = biological target: T1, PDE9A2 E406A mutant; assay: Enzymatic assay, kinetic parameters with cAMP and cGMP as substrates; format: biochemical
Protocol: as §1

[5] = biological target: T3, PDE9A2 Q453E mutant (PDE9Q453E); assay: as above; format: biochemical
Protocol: as §1

[6] = biological target: T2, wild type PDE9A2 catalytic domain; assay: as above; format: biochemical; details: substrate
Protocol: as §1

PDE5A Q817A mutant = details: PDE5A Q817A versus wild type; cited from earlier work
[7] = biological target: the molecule itself; assay: crystal structure; PDE9Q453E catalytic domain (10-15 mg/mL) co-crystallised with 2 mM IBMX, hanging drop, 2.0 M Na formate, 0.1 M HEPES pH 7.5, 5% xylitol, 4°C; (S)-BAY73-6691 complex by soaking; two molecules in the asymmetric unit
[8] = E406A compared with wild type enzyme

IC50 (PDE9A2 E406A mutant [1]): 31.7 ± 1.1 µM
IC50 [2]: 53.9 ± 1.1 µM
Molecule: CC(C)Cn1c(=O)n(C)c(=O)c2[nH]cnc21 [IBMX, 3-isobutyl-1-methylxanthine]

IC50 (PDE9A2 E406A mutant [1]; E406A mutant, 30 nM 3H-cGMP, read-out: IC50): 7.6 ± 1.1 µM
IC50 ([3]; Q453E mutant, 30 nM 3H-cGMP): 53.7 ± 1.2 µM
IC50 ([2]; wild type enzyme, 30 nM 3H-cGMP, read-out: IC50): 15.9 ± 1.2 µM
Molecule: CCCOc1ccccc1-c1nc2nn[nH]c2c(=O)[nH]1 [Zaprinast]

The remaining lines, values behind:

Molecule: C[C@@H](Cc1nc2c(cnn2-c2ccccc2Cl)c(=O)[nH]1)C(F)(F)F [(S)-BAY73-6691, 1-(2-chlorophenyl)-6-(3,3,3-trifluoro-2-methylpropyl)-1H-pyrazolo [3,4-d]pyrimidin-4(5H)-one]
fold increase of IC50 (affinity decrease), Q453E mutant versus wild type ([3]; Q453E IC50 relative to wild type IC50): > 1800 fold and 1800 fold

Molecule: Nc1nc2c(ncn2[C@@H]2O[C@@H]3COP(=O)(O)O[C@H]3[C@H]2O)c(=O)[nH]1 [cGMP]
fold reduction of apparent affinity, E406A versus wild type (PDE9A2 E406A mutant [4]; [8]): 2 fold
fold reduction of catalytic activity, E406A versus wild type (PDE9A2 E406A mutant [4]; [8]): 2 fold
Km (PDE9A2 E406A mutant [4]; E406A, substrate): 0.311 ± 0.04 µM
Vmax (PDE9A2 E406A mutant [4]; E406A, substrate): 0.129 ± 0.004 µmol/mg/min
kcat (PDE9A2 E406A mutant [4]; E406A, substrate): 0.08±0.00 S^−1
fold loss of enzymatic efficacy kcat/KM, Q453E versus wild type ([5]; Q453E compared with wild type enzyme): about 50 fold
Km ([5]; Q453E, substrate): 2.8 ± 0.18 µM
Vmax ([5]; Q453E, substrate): 0.139 ± 0.003 µmol/mg/min
kcat ([5]; Q453E, substrate): 0.09±0.00 S^−1
Km [6]: 0.113 ± 0.013 µM
Vmax [6]: 0.285 ± 0.008 µmol/mg/min
kcat [6]: 0.18±0.00 S^−1
fold reduction of cGMP affinity by Q817A mutation (PDE5A Q817A mutant): about 60 fold

B1: catalytic domain of the PDE9A2 Q453E mutant (amino acids 181-506) (domain or fragment, human, UniProt O76083-2 181-506, looked up)
chain: PTYPKYLLSPETIEALRKPTFDVWLWEPNEMLSCLEHMYHDLGLVRDFSINPVTLRRWLFCVHDNYRNNPFHNFRHCFCVAQMMYSMVWLCSLQEKFSQTDILILMTAAICHDLDHPGYNNTYQINARTELAVRYNDISPLENHHCAVAFQILAEPECNIFSNIPPDGFKQIRQGMITLILATDMARHAEIMDSFKEKMENFDYSNEEHMTLLKMILIKCCDISNEVRPMEVAEPWVDCLLEEYFMQSDREKSEGLPVAPFMDRDKVTKATAEIGFIKFVLIPMFETVTKLFPMVEEIMLQPLWESRDRYEELKRIDDAMKELQKK
notes: phosphodiesterase 9A, isoform PDE9A2, human, catalytic domain, residues 181-506, GenBank BC009047; numbers count on: PDE9A2; also called PDE9Q453E; PDE9 Q453E mutant; source: E. coli BL21 (Codonplus), purified (Ni-NTA, Q-Sepharose, Sephacryl S300)
binding result [7]: binds
